Test system: MV-4-11 cells
Experiment: Gene expression microarray analysis (Affymetrix PrimeView) and GSEA
Format: cell-based, human
Design: RFU PODN (11730768_x_at) / Fold change /veh PODN (11730768_x_at) / RFU LINC00158 (11744669_a_at) / Fold change /veh LINC00158 (11744669_a_at) / RFU DUSP10 (11751237_a_at) / Fold change /veh DUSP10 (11751237_a_at) / RFU ID3 (11757404_x_at) / Fold change /veh ID3 (11757404_x_at) / RFU PLEKHG5 (11737974_s_at) / Fold change /veh PLEKHG5 (11737974_s_at) / RFU LRRC4B (11730491_at) / Fold change /veh LRRC4B (11730491_at) / RFU GIMAP4 (11747438_a_at) / Fold change /veh GIMAP4 (11747438_a_at) / RFU KRT8 (11758183_x_at) / Fold change /veh KRT8 (11758183_x_at) / RFU CNN1 (11734310_a_at) / Fold change /veh CNN1 (11734310_a_at) / RFU VPS37D (11726825_at) / Fold change /veh VPS37D (11726825_at) / RFU C10orf10 (11716522_x_at) / Fold change /veh C10orf10 (11716522_x_at) / RFU KIR2DL2 /// KIR2DL4 /// KIR2DL5A /// KIR2DL5B /// KIR2DS1 /// KIR2DS2 /// KIR2DS3 /// KIR2DS4 /// KIR3DL3 /// KIR3DL3 /// KIR3DS1 (11738374_at) / Fold change /veh KIR2DL2 /// KIR2DL4 /// KIR2DL5A /// KIR2DL5B /// KIR2DS1 /// KIR2DS2 /// KIR2DS3 /// KIR2DS4 /// KIR3DL3 /// KIR3DL3 /// KIR3DS1 (11738374_at) / RFU C1QL1 (11718748_at) / Fold change /veh C1QL1 (11718748_at) / RFU TMPRSS4 (11747572_a_at) / Fold change /veh TMPRSS4 (11747572_a_at) / RFU HAMP (11756126_x_at) / Fold change /veh HAMP (11756126_x_at) / RFU RNFT2 (11725882_a_at) / Fold change /veh RNFT2 (11725882_a_at) / RFU NR4A2 (11747474_a_at) / Fold change /veh NR4A2 (11747474_a_at) / RFU ABCC12 (11746883_a_at) / Fold change /veh ABCC12 (11746883_a_at) / RFU TMEM136 (11760407_x_at) / Fold change /veh TMEM136 (11760407_x_at) / RFU CLDN22 /// WWC2 (11732394_at) / Fold change /veh CLDN22 /// WWC2 (11732394_at) / RFU HLA-DPB1 (11760878_x_at) / Fold change /veh HLA-DPB1 (11760878_x_at) / RFU SPINT1 (11716480_a_at) / Fold change /veh SPINT1 (11716480_a_at) / RFU GAP43 (11754022_s_at) / Fold change /veh GAP43 (11754022_s_at) / RFU A4GNT (11735810_at) / Fold change /veh A4GNT (11735810_at) / RFU PRB3 (11715151_x_at) / Fold change /veh PRB3 (11715151_x_at) / RFU TUBB4B (11761932_at) / Fold change /veh TUBB4B (11761932_at) / RFU CAPN14 (11732068_a_at) / Fold change /veh CAPN14 (11732068_a_at) / RFU TMCC2 (11721928_a_at) / Fold change /veh TMCC2 (11721928_a_at) / RFU IRGQ (11745062_a_at) / Fold change /veh IRGQ (11745062_a_at) / RFU FAM174B (11720279_a_at) / Fold change /veh FAM174B (11720279_a_at) / RFU TMPRSS4 (11748680_a_at) / Fold change /veh TMPRSS4 (11748680_a_at) / RFU FAM212B (11763350_a_at) / Fold change /veh FAM212B (11763350_a_at) / RFU PLEKHG5 (11743358_a_at) / Fold change /veh PLEKHG5 (11743358_a_at) / RFU ZSCAN30 (11745921_a_at) / Fold change /veh ZSCAN30 (11745921_a_at) / RFU CMKLR1 (11741424_a_at) / Fold change /veh CMKLR1 (11741424_a_at) / RFU LOC101060620 /// MAPK8IP1 (11723275_at) / Fold change /veh LOC101060620 /// MAPK8IP1 (11723275_at) / RFU SPTSSB (11747773_x_at) / Fold change /veh SPTSSB (11747773_x_at) / RFU PRSS12 (11739890_at) / Fold change /veh PRSS12 (11739890_at) / RFU BIN1 (11741810_x_at) / Fold change /veh BIN1 (11741810_x_at) / RFU WNT11 (11732464_a_at) / Fold change /veh WNT11 (11732464_a_at) / RFU C10orf10 (11716521_a_at) / Fold change /veh C10orf10 (11716521_a_at) / RFU C5orf56 (11738089_at) / Fold change /veh C5orf56 (11738089_at) / RFU CYB561 (11721691_x_at) / Fold change /veh CYB561 (11721691_x_at) / RFU ANKRD19P (11752326_a_at) / Fold change /veh ANKRD19P (11752326_a_at) / RFU OR2T12 /// OR2T33 /// OR2T8 (11738714_s_at) / Fold change /veh OR2T12 /// OR2T33 /// OR2T8 (11738714_s_at) / RFU VCAN (11748164_a_at) / Fold change /veh VCAN (11748164_a_at) / RFU JSRP1 (11732532_at) / Fold change /veh JSRP1 (11732532_at) / RFU KRTAP10-11 (11738290_x_at) / Fold change /veh KRTAP10-11 (11738290_x_at) / RFU MYO3A (11730013_a_at) / Fold change /veh MYO3A (11730013_a_at) / RFU EBF3 (11725865_a_at) / Fold change /veh EBF3 (11725865_a_at) / RFU CAMK2N1 (11719241_x_at) / Fold change /veh CAMK2N1 (11719241_x_at) / RFU C5orf56 (11738088_a_at) / Fold change /veh C5orf56 (11738088_a_at) / RFU OLFML3 (11715873_a_at) / Fold change /veh OLFML3 (11715873_a_at) / RFU LOC100653217 /// NTM (11731650_a_at) / Fold change /veh LOC100653217 /// NTM (11731650_a_at) / RFU MAPK11 (11762145_a_at) / Fold change /veh MAPK11 (11762145_a_at) / RFU FIZ1 (11724087_x_at) / Fold change /veh FIZ1 (11724087_x_at) / RFU OASL (11726364_x_at) / Fold change /veh OASL (11726364_x_at) / RFU SOX15 (11748057_x_at) / Fold change /veh SOX15 (11748057_x_at) / RFU CD79A (11719716_a_at) / Fold change /veh CD79A (11719716_a_at) / RFU HIST1H1D (11736915_at) / Fold change /veh HIST1H1D (11736915_at) / RFU CASKIN2 (11723855_a_at) / Fold change /veh CASKIN2 (11723855_a_at) / RFU LOC730098 (11760151_x_at) / Fold change /veh LOC730098 (11760151_x_at) / RFU OR4N2 (11742367_at) / Fold change /veh OR4N2 (11742367_at) / RFU PRRT2 (11749266_a_at) / Fold change /veh PRRT2 (11749266_a_at) / RFU SNX32 (11753110_a_at) / Fold change /veh SNX32 (11753110_a_at) / RFU CDHR5 (11726645_a_at) / Fold change /veh CDHR5 (11726645_a_at) / RFU RCAN1 (11760418_a_at) / Fold change /veh RCAN1 (11760418_a_at) / RFU FAM167A (11723789_a_at) / Fold change /veh FAM167A (11723789_a_at) / RFU FAM26E (11764081_at) / Fold change /veh FAM26E (11764081_at) / RFU ISYNA1 (11749810_s_at) / Fold change /veh ISYNA1 (11749810_s_at) / RFU ACY1 (11761880_at) / Fold change /veh ACY1 (11761880_at) / RFU 11764098_at / Fold change /veh 11764098_at / RFU SAMD14 (11745864_x_at) / Fold change /veh SAMD14 (11745864_x_at) / RFU NPB (11741838_a_at) / Fold change /veh NPB (11741838_a_at) / RFU TMPRSS6 (11731388_a_at) / Fold change /veh TMPRSS6 (11731388_a_at) / RFU KRTAP10-2 (11738614_at) / Fold change /veh KRTAP10-2 (11738614_at) / RFU ARHGAP8 /// PRR5-ARHGAP8 (11727945_x_at) / Fold change /veh ARHGAP8 /// PRR5-ARHGAP8 (11727945_x_at) / RFU KRTAP5-7 /// NADSYN1 (11734609_at) / Fold change /veh KRTAP5-7 /// NADSYN1 (11734609_at) / RFU RASL12 (11751679_a_at) / Fold change /veh RASL12 (11751679_a_at) / RFU CDKN2B (11736163_a_at) / Fold change /veh CDKN2B (11736163_a_at) / RFU PRF1 (11729649_at) / Fold change /veh PRF1 (11729649_at) / RFU, ZNF638 /// ZNF638-IT1 / Fold change vs veh, ZNF638 /// ZNF638-IT1 / RFU, PANK3 / Fold change vs veh, PANK3 / RFU, SH3YL1 / Fold change vs veh, SH3YL1 / RFU, ZEB2 / Fold change vs veh, ZEB2 / RFU, NRIP1 / Fold change vs veh, NRIP1 / RFU, PTTG1IP / Fold change vs veh, PTTG1IP / RFU, CAPN2 / Fold change vs veh, CAPN2 / RFU, MED14 / Fold change vs veh, MED14 / RFU, SNORA58 / Fold change vs veh, SNORA58 / RFU, C1orf63 / Fold change vs veh, C1orf63 / RFU, LRRFIP1 / Fold change vs veh, LRRFIP1 / RFU, NDUFAF7 / Fold change vs veh, NDUFAF7 / RFU, SLC12A2 / Fold change vs veh, SLC12A2 / RFU, IBTK / Fold change vs veh, IBTK / RFU, ESF1 / Fold change vs veh, ESF1 / Fold change vs veh, TMEM50B / RFU, TAOK1 / Fold change vs veh, TAOK1 / RFU, ACBD3 / Fold change vs veh, ACBD3 / RFU, TMA16 / Fold change vs veh, TMA16 / RFU, RWDD3 / Fold change vs veh, RWDD3 / RFU, BCAT1 / Fold change vs veh, BCAT1 / RFU, EDEM3 / Fold change vs veh, EDEM3 / RFU, TMEM33 / Fold change vs veh, TMEM33 / RFU, WDR75 / Fold change vs veh, WDR75 / RFU, AHCTF1 / Fold change vs veh, AHCTF1 / RFU, TFRC / Fold change vs veh, TFRC / RFU, ZDHHC17 / Fold change vs veh, ZDHHC17 / RFU, NOM1 / Fold change vs veh, NOM1 / RFU, ARL8B / Fold change vs veh, ARL8B / RFU, ZBTB11 / Fold change vs veh, ZBTB11 / RFU, TAMM41 / Fold change vs veh, TAMM41 / RFU, KIAA1704 /// LOC100996395 / Fold change vs veh, KIAA1704 /// LOC100996395 / RFU, ING1 / Fold change vs veh, ING1 / RFU, TRMT61B / Fold change vs veh, TRMT61B / RFU, FUBP3 / Fold change vs veh, FUBP3 / RFU, TP53 / Fold change vs veh, TP53 / RFU, TNKS2 / Fold change vs veh, TNKS2 / RFU, ZFP14 / Fold change vs veh, ZFP14 / RFU, ACTR2 / Fold change vs veh, ACTR2 / RFU, PPP3R1 / Fold change vs veh, PPP3R1 / RFU, PIK3R1 / Fold change vs veh, PIK3R1 / RFU, HNRNPA1 / Fold change vs veh, HNRNPA1 / RFU, RNF170 / Fold change vs veh, RNF170 / RFU, ZNF28 / Fold change vs veh, ZNF28 / RFU, RNGTT / Fold change vs veh, RNGTT / RFU, OGT / Fold change vs veh, OGT / RFU, BRD1 / Fold change vs veh, BRD1 / RFU, MARS / Fold change vs veh, MARS / RFU, ZNF655 / Fold change vs veh, ZNF655 / RFU, FAHD1 / Fold change vs veh, FAHD1 / RFU, BDP1 / Fold change vs veh, BDP1 / RFU, LRRCC1 / Fold change vs veh, LRRCC1 / RFU, ARID1A / Fold change vs veh, ARID1A / RFU, ZNF146 / Fold change vs veh, ZNF146 / RFU, ZNF330 / Fold change vs veh, ZNF330 / RFU, GPN3 / Fold change vs veh, GPN3 / RFU, C9orf123 / Fold change vs veh, C9orf123 / RFU, N4BP2L2 / Fold change vs veh, N4BP2L2 / RFU, ARFIP1 / Fold change vs veh, ARFIP1 / RFU, FAM179B / Fold change vs veh, FAM179B / RFU, BCL10 / Fold change vs veh, BCL10 / RFU, UHRF1BP1L / Fold change vs veh, UHRF1BP1L / RFU, BET1 / Fold change vs veh, BET1 / RFU, CNOT2 / Fold change vs veh, CNOT2 / RFU, ZNF268 / Fold change vs veh, ZNF268 / Fold change vs veh, ZNF507 / RFU, DGCR2 / Fold change vs veh, DGCR2 / RFU, WDSUB1 / Fold change vs veh, WDSUB1 / Fold change vs veh, HSP90B1 /// MIR3652 / RFU, ADSS / Fold change vs veh, ADSS / RFU, GK / Fold change vs veh, GK / RFU, ZNF148 / Fold change vs veh, ZNF148 / RFU, TAF9 / Fold change vs veh, TAF9 / RFU, SLC1A5 / Fold change vs veh, SLC1A5 / RFU, SLMO2 / Fold change vs veh, SLMO2 / RFU, ABCC4 / Fold change vs veh, ABCC4 / RFU, LOC101060439 /// RAP1B / Fold change vs veh, LOC101060439 /// RAP1B / RFU, RFX7 / Fold change vs veh, RFX7 / RFU, GTPBP10 / Fold change vs veh, GTPBP10 / RFU, CNEP1R1 / Fold change vs veh, CNEP1R1 / RFU, BIVM-ERCC5 /// ERCC5 / Fold change vs veh, BIVM-ERCC5 /// ERCC5 / RFU, ILF3 / Fold change vs veh, ILF3 / RFU 11762660_at / Fold change /veh 11762660_at / RFU VCAN (11757783_s_at) / Fold change /veh VCAN (11757783_s_at) / RFU DDX43 (11728927_at) / Fold change /veh DDX43 (11728927_at) / RFU KRT8 (11758188_x_at) / Fold change /veh KRT8 (11758188_x_at) / RFU NKD1 (11759106_at) / Fold change /veh NKD1 (11759106_at) / RFU SRD5A1 (11742802_a_at) / Fold change /veh SRD5A1 (11742802_a_at) / RFU TPSAB1 /// TPSB2 (11721975_s_at) / Fold change /veh TPSAB1 /// TPSB2 (11721975_s_at) / RFU GSTM3 (11746129_a_at) / Fold change /veh GSTM3 (11746129_a_at) / RFU IL23R (11737362_x_at) / Fold change /veh IL23R (11737362_x_at) / RFU TMEM51 (11727254_a_at) / Fold change /veh TMEM51 (11727254_a_at) / RFU PIWIL2 (11732686_x_at) / Fold change /veh PIWIL2 (11732686_x_at) / RFU ORM1 (11744905_x_at) / Fold change /veh ORM1 (11744905_x_at) / RFU CCDC152 (11743942_at) / Fold change /veh CCDC152 (11743942_at) / RFU ECM1 (11717891_a_at) / Fold change /veh ECM1 (11717891_a_at) / RFU IL23R (11748794_a_at) / Fold change /veh IL23R (11748794_a_at) / RFU TNFAIP8L3 (11732012_x_at) / Fold change /veh TNFAIP8L3 (11732012_x_at) / RFU MBOAT4 (11741988_at) / Fold change /veh MBOAT4 (11741988_at) / RFU 11764193_at / Fold change /veh 11764193_at / RFU TMEM53 (11763286_at) / Fold change /veh TMEM53 (11763286_at) / RFU MAGEB2 (11727129_at) / Fold change /veh MAGEB2 (11727129_at) / RFU TMEM200A (11744735_a_at) / Fold change /veh TMEM200A (11744735_a_at) / RFU CCDC152 (11751479_a_at) / Fold change /veh CCDC152 (11751479_a_at) / RFU FAM211A (11726209_a_at) / Fold change /veh FAM211A (11726209_a_at) / RFU RGS16 (11746705_a_at) / Fold change /veh RGS16 (11746705_a_at) / RFU VCAN (11755009_s_at) / Fold change /veh VCAN (11755009_s_at) / RFU RHOB (11743442_s_at) / Fold change /veh RHOB (11743442_s_at) / RFU RGS16 (11720943_a_at) / Fold change /veh RGS16 (11720943_a_at) / RFU RGS16 (11720944_at) / Fold change /veh RGS16 (11720944_at) / RFU, VPS4B / Fold change vs veh, VPS4B / RFU, CREB1 / Fold change vs veh, CREB1 / RFU, DNAJC13 / Fold change vs veh, DNAJC13 / RFU, GNAQ / Fold change vs veh, GNAQ / RFU, CDK5R1 / Fold change vs veh, CDK5R1 / RFU, ZRANB3 / Fold change vs veh, ZRANB3 / RFU, CUL4A / Fold change vs veh, CUL4A / RFU, CCNY / Fold change vs veh, CCNY / RFU, UFL1 / Fold change vs veh, UFL1 / RFU, COG3 / Fold change vs veh, COG3 / RFU, DIAPH2 / Fold change vs veh, DIAPH2 / RFU, SKA2 / Fold change vs veh, SKA2 / RFU, AFF3 / Fold change vs veh, AFF3 / RFU, LMF1 / Fold change vs veh, LMF1 / RFU, IPO11 / Fold change vs veh, IPO11 / RFU, DFFB / Fold change vs veh, DFFB / RFU, FOXP1 / Fold change vs veh, FOXP1 / RFU, CARD8 / Fold change vs veh, CARD8 / RFU, STRN3 / Fold change vs veh, STRN3 / RFU, ADK / Fold change vs veh, ADK / RFU, RASSF2 / Fold change vs veh, RASSF2 / RFU, WIPF1 / Fold change vs veh, WIPF1 / RFU, LARP1B / Fold change vs veh, LARP1B / RFU, RASA1 / Fold change vs veh, RASA1 / RFU, RB1 / Fold change vs veh, RB1 / RFU, PPFIA1 / Fold change vs veh, PPFIA1 / RFU, MAT2A / Fold change vs veh, MAT2A / RFU, CCT5 / Fold change vs veh, CCT5 / RFU, WDR92 / Fold change vs veh, WDR92 / RFU, CUX1 / Fold change vs veh, CUX1 / RFU, TTC7A / Fold change vs veh, TTC7A / RFU, TMEM135 / Fold change vs veh, TMEM135 / RFU, DEPTOR / Fold change vs veh, DEPTOR / RFU, CPM / Fold change vs veh, CPM / RFU, DNAJB6 / Fold change vs veh, DNAJB6 / RFU, CACNA2D3 / Fold change vs veh, CACNA2D3 / RFU, DTX4 / Fold change vs veh, DTX4 / RFU, TFCP2 / Fold change vs veh, TFCP2 / RFU, GMCL1 /// GMCL1P1 / Fold change vs veh, GMCL1 /// GMCL1P1 / RFU, AEBP2 / Fold change vs veh, AEBP2 / RFU, SNHG1 /// SNORD22 /// SNORD25 /// SNORD26 /// SNORD27 /// SNORD28 /// SNORD29 /// SNORD31 / Fold change vs veh, SNHG1 /// SNORD22 /// SNORD25 /// SNORD26 /// SNORD27 /// SNORD28 /// SNORD29 /// SNORD31 / Fold change (Aza/veh), C12orf56 (ProbeSet 11735607_a_at) / Fold change (ACY-1035/veh), C12orf56 (ProbeSet 11735607_a_at) / Fold change (Aza/veh), FGFR1OP (ProbeSet 11751329_s_at) / Fold change (ACY-1035/veh), FGFR1OP (ProbeSet 11751329_s_at) / Fold change (Aza/veh), VPS36 (ProbeSet 11739960_a_at) / Fold change (ACY-1035/veh), VPS36 (ProbeSet 11739960_a_at) / RFU SYPL1 (11715823_x_at) / Fold change /veh SYPL1 (11715823_x_at) / RFU IGFBP7 (11715501_s_at) / Fold change /veh IGFBP7 (11715501_s_at) / RFU REEP3 (11722064_at) / Fold change /veh REEP3 (11722064_at) / RFU IGLL1 (11728026_x_at) / Fold change /veh IGLL1 (11728026_x_at): dose or concentration left out as unconfirmed
Details: MV-4-11 cells, 48 hours

Nc1ncn([C@@H]2O[C@H](CO)[C@@H](O)[C@H]2O)c(=O)n1 [azacitidine]
RFU BIN1 (11741810_x_at): 29.77 RFU
